Measurements: PMC7577319 (Bioorganic & medicinal chemistry, 2020)

System: HeLa cells
Assay: Cytosolic entry of NF-labelled peptides by flow cytometry
Type: cell-based
Conditions: 5 μM, 2 h, inversion of configuration of Arg-9 or Nal-4 of peptide 4

Substance	fold higher cytosolic entry activity relative to peptide 4 [fold]
cyclo(AAFϕRpPRRFAAAQ)-miniPEG-K(NF) [compound 8]	2.3
cyclo(AAFΦRpPRrFAAAQ)-miniPEG-K(NF) [compound 7]	1.7
